What all share (assay type): biochemical
In one assay the target is T1, PTP-1B (Homo sapiens, UniProt P18031).
T1 construct: purchased BIOMOL Research Laboratories, Inc
T1 sequence (P18031 1-435): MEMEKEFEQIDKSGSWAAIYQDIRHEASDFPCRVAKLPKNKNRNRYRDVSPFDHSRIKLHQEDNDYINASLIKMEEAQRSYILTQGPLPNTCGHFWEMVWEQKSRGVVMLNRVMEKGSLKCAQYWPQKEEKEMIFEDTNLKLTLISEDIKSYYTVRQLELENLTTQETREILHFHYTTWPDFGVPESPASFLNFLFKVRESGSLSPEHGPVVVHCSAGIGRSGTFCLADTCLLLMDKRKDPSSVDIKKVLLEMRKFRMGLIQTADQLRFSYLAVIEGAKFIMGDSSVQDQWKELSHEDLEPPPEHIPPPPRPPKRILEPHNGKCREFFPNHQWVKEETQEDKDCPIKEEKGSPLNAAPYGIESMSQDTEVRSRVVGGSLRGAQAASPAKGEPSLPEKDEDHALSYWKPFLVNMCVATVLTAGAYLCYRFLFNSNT
The experiment in a line: PTP-1B Assay. The note with it: Table 6. As for the experimental part: B) PTP-1B Assay: Inhibition of the phosphatase PTP1B was performed according to reported procedures (Puius, Y. A. et a. Proc. Natl. Acad. Sci., 1997, 94, 13420; Liu, F. J. Biol. Chem., 1996, 271, 31290). PTP1B was purchased from BIOMOL Research Laboratories, Inc.

In another assay the target is T2, SHP2 (Homo sapiens, UniProt Q06124).
T2 construct: made in house; host or cells: adenovirus vector
T2 sequence (Q06124 1-593): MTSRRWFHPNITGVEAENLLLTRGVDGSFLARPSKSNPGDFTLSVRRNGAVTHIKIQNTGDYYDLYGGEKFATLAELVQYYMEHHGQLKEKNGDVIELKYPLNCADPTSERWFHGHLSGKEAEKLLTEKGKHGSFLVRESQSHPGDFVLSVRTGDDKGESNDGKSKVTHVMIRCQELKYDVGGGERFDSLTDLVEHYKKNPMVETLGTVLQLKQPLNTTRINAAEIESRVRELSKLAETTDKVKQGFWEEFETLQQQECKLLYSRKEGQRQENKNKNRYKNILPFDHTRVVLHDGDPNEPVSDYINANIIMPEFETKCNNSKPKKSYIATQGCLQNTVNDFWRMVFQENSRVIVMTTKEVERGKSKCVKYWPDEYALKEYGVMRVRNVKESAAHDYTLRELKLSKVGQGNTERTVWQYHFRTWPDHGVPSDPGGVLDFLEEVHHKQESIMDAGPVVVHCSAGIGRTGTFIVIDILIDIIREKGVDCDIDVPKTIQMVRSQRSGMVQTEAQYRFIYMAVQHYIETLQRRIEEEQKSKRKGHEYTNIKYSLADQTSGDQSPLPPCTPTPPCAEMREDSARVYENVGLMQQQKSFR
Kind of assay: Phosphatase profile: SHP2 inhibition (DIFMUP fluorescence). The settings on record: Table 6. As for the experimental part:
(§1) A) SHP1 and SHP2: SHP1 and SHP2 adenovirus vectors were prepared. SHP1 and SHP2 were independently over expressed, isolated and purified using FPLC. Enzyme was diluted to 1000-1400 FU/min. Enzyme (45 μL) was uniformLy plated in 96 well plates and treated with serial dilutions of compound (2 μL in DMSO). Compound and enzyme are allowed to incubate for 30 minutes at RT before the addition of DIFMUP (100 μM). The solutions are allowed to incubate at RT for 10 minutes prior to reading the fluorescence, to provide IC50 curves using LSW Data Analysis Tool Box (MDL).

The next assay deals with T3, CD45 (Homo sapiens, UniProt P08575).
T3 construct: purchased BIOMOL Research Laboratories, Inc
T3 sequence (P08575 26-1306): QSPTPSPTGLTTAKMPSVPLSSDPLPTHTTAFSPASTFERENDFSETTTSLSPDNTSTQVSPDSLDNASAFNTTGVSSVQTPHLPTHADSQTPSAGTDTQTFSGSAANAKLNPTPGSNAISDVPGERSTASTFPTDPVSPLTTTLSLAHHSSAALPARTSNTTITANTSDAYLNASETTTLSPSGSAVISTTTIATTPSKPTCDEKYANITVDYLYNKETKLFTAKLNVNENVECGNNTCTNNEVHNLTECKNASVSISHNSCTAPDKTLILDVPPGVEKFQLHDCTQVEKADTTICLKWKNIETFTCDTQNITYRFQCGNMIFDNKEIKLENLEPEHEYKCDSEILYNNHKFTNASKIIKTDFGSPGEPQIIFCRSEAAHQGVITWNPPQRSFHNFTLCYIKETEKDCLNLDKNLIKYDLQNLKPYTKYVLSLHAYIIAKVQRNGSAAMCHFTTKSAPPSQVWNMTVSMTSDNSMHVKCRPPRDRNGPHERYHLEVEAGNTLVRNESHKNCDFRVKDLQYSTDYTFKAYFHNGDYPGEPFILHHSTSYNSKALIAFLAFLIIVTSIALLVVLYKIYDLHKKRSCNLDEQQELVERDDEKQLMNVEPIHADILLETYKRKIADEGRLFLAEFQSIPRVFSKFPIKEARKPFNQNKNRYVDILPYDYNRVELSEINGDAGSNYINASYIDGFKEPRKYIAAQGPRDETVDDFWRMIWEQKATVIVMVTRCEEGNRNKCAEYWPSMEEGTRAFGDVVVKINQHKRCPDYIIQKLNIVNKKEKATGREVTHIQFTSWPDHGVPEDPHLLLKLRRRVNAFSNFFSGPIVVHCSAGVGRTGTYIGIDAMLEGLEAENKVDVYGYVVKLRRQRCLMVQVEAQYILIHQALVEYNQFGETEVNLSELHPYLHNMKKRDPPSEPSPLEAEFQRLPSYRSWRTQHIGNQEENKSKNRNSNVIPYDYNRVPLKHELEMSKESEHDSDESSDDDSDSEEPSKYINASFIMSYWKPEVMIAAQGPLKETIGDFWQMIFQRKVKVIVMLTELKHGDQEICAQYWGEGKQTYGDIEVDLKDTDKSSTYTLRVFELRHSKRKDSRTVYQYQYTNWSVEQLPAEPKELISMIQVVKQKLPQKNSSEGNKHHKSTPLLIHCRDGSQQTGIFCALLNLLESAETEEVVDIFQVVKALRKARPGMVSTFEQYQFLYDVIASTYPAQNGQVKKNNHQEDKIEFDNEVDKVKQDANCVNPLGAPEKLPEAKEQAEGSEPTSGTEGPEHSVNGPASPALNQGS
Kind of assay: CD45 (PTPase) Assay. The note with it: Table 6. As for the experimental part: D) CD45 (PTPase) Assay: Inhibition of the phosphatase CD45 was performed according to reported procedures (Pacitti, A. et al Biochem. Biophys. Acta, 1994, 1222, 277; Fisher, D. K. and Higgins, T. J. Pharmacol. Res., 1994, 11, 759). CD45 was purchased from BIOMOL Research Laboratories, Inc.

In a further assay the target is T4, SHP1 (Homo sapiens, UniProt P29350).
T4 construct: made in house; host or cells: adenovirus vector
T4 sequence (P29350 whole entry): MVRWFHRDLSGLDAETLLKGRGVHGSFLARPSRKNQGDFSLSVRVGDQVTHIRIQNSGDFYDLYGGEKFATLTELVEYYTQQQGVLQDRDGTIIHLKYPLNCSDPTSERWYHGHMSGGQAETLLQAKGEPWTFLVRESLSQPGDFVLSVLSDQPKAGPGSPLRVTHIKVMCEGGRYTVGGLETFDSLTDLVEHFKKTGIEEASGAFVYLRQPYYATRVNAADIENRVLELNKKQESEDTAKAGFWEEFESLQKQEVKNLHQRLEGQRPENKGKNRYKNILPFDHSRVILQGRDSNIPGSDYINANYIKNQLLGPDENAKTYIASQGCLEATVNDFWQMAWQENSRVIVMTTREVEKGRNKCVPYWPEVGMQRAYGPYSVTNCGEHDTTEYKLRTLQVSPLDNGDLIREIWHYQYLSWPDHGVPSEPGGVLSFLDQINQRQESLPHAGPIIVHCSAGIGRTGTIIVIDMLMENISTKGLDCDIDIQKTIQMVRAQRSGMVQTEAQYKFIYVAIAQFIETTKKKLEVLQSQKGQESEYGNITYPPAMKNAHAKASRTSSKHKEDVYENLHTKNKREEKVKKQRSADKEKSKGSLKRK
Kind of assay: Phosphatase profile: SHP1 inhibition (DIFMUP fluorescence). Here is the method: as §1

Like-named read-outs stand apart in the source and are kept apart here.

From patent US20060234987A1, “Neuroprotective benzo 1 3 oxathiol 2 ones” (priority 2003, published 2006) come the findings set out here.

The term IC50 denotes the midpoint of a concentration-inhibition curve.

As for `O=c1oc2c(Sc3ccc4ccccc4c3)cc(O)c(Sc3ccc4ccccc4c3)c2s1` [Compound 30, 4,7-Bis-((2-naphthyl)sulfanyl)-5-hydroxybenzo[1,3]oxathiol-2-one], on PTP-1B, the “PTP-1B IC50” value is recorded as “no inh”. Besides, the IC50 came out at 18.4 µM at SHP2 and 5.41 µM on SHP1 (Table 6, read-out: SHP1 IC50). Moreover, the “C45 IC50” value at CD45 is given as “no inh”.
`O=c1oc2c(Sc3ccc4ccccc4c3)cc(O)cc2s1` [Compound 23, 5-Hydroxy-7-((2-naphthy)sulfanyl)benzo[1,3]oxathiol-2-one]: the “PTP-1B IC50” value at PTP-1B is “no inh”. In addition, the IC50 against SHP2 was found to be 16.5 µM; on SHP1 (FIG. 1 legend, read-out: SHP1 IC50 (FIG. 1 inhibition curve)), 10.6 µM; at SHP1 (Table 6, read-out: SHP1 IC50), 10.9 µM. Moreover, the “C45 IC50” value on CD45 is recorded as “no inh”.
